In ChEMBL document CHEMBL5120920, “A Mitochondria-Targeted Phenylbutyric Acid Prodrug Confers Drastically Improved Anticancer Activities” (J Med Chem, 2022) one finds IC50 data, which are given here for 8 compounds.

One experiment has as its system A549. The experiment is described as follows: Antiproliferative activity against human A549 cells assessed as inhibition of cell viability incubated for 72 hrs by MTT assay. The class given is functional, cell-based. Particulars: A549, 72 h. On the technique in general: Tetrazolium assays rely on reduction of a dye to a coloured formazan, in cell work by metabolically active cells.
What is called IC50 is the midpoint of a concentration-inhibition curve. As for `O=C(CC[P+](c1ccccc1)(c1ccccc1)c1ccccc1)NC(COC(=O)CCCc1ccccc1)(COC(=O)CCCc1ccccc1)COC(=O)CCCc1ccccc1`, the 50% inhibitory concentration (IC50) stood at 1.01 µM.
Regarding `O=C(CCCC[P+](c1ccccc1)(c1ccccc1)c1ccccc1)NC(COC(=O)CCCc1ccccc1)(COC(=O)CCCc1ccccc1)COC(=O)CCCc1ccccc1`, the IC50 is 1.03 µM.
Same read-out and setting: the value for `O=C(CCCc1ccccc1)NCC(CNC(=O)CCCc1ccccc1)(CNC(=O)CCCc1ccccc1)NC(=O)CCCCCCC[P+](c1ccccc1)(c1ccccc1)c1ccccc1` was 1.42 µM.
Regarding `O=C(O)CCCCC[P+](c1ccccc1)(c1ccccc1)c1ccccc1`, the IC50 is more than 20 µM.
Still for that read-out and setting: under `COc1cccc([P+](CCCCCCCCCC(=O)NC(CNC(=O)CCCc2ccccc2)(CNC(=O)CCCc2ccccc2)CNC(=O)CCCc2ccccc2)(c2cccc(OC)c2)c2cccc(OC)c2)c1` stands 0.97 µM.
The same measure, in the same setting: under `O=C(CCCCC[P+](c1ccccc1)(c1ccccc1)c1ccccc1)NC(COC(=O)CCCc1ccccc1)(COC(=O)CCCc1ccccc1)COC(=O)CCCc1ccccc1` stands 1.08 µM; under `O=C(CCC[P+](c1ccccc1)(c1ccccc1)c1ccccc1)NC(COC(=O)CCCc1ccccc1)(COC(=O)CCCc1ccccc1)COC(=O)CCCc1ccccc1`, 0.65 µM.
Turning to `O=C(O)CCCCCCC[P+](c1ccccc1)(c1ccccc1)c1ccccc1`, the IC50 is more than 20 µM.

Another experiment relates to MCF7. Put plainly: Antiproliferative activity against human MCF7 cells assessed as inhibition of cell viability incubated for 72 hrs by MTT assay. The class given is functional, cell-based. Particulars: MCF7, 72 h.
With `O=C(CC[P+](c1ccccc1)(c1ccccc1)c1ccccc1)NC(COC(=O)CCCc1ccccc1)(COC(=O)CCCc1ccccc1)COC(=O)CCCc1ccccc1`, the half-maximal inhibitory concentration (IC50) came to 0.97 µM.
On to `O=C(CCCC[P+](c1ccccc1)(c1ccccc1)c1ccccc1)NC(COC(=O)CCCc1ccccc1)(COC(=O)CCCc1ccccc1)COC(=O)CCCc1ccccc1`, for which the IC50 amounted to 0.64 µM.
`O=C(CCCc1ccccc1)NCC(CNC(=O)CCCc1ccccc1)(CNC(=O)CCCc1ccccc1)NC(=O)CCCCCCC[P+](c1ccccc1)(c1ccccc1)c1ccccc1`: the IC50 stood at 1.31 µM.
On to `O=C(O)CCCCC[P+](c1ccccc1)(c1ccccc1)c1ccccc1`, for which the IC50 is more than 20 µM.
With `COc1cccc([P+](CCCCCCCCCC(=O)NC(CNC(=O)CCCc2ccccc2)(CNC(=O)CCCc2ccccc2)CNC(=O)CCCc2ccccc2)(c2cccc(OC)c2)c2cccc(OC)c2)c1`, the half-inhibitory concentration (IC50) came out at 0.79 µM.
The same measure, in the same setting: under `O=C(CCCCC[P+](c1ccccc1)(c1ccccc1)c1ccccc1)NC(COC(=O)CCCc1ccccc1)(COC(=O)CCCc1ccccc1)COC(=O)CCCc1ccccc1` stands 0.91 µM.
Still for that read-out and setting: the value for `O=C(CCC[P+](c1ccccc1)(c1ccccc1)c1ccccc1)NC(COC(=O)CCCc1ccccc1)(COC(=O)CCCc1ccccc1)COC(=O)CCCc1ccccc1` was 0.62 µM; that for `O=C(O)CCCCCCC[P+](c1ccccc1)(c1ccccc1)c1ccccc1` was more than 20 µM.

The test system of the next experiment is MDA-MB-231. The experiment is described as follows: Antiproliferative activity against human MDA-MB-231 cells assessed as inhibition of cell viability incubated for 72 hrs by MTT assay. The class given is functional, cell-based. The note with it: MDA-MB-231, 72 h.
For `O=C(CC[P+](c1ccccc1)(c1ccccc1)c1ccccc1)NC(COC(=O)CCCc1ccccc1)(COC(=O)CCCc1ccccc1)COC(=O)CCCc1ccccc1`, the IC50 was determined as 2.59 µM.
Turning to `O=C(CCCC[P+](c1ccccc1)(c1ccccc1)c1ccccc1)NC(COC(=O)CCCc1ccccc1)(COC(=O)CCCc1ccccc1)COC(=O)CCCc1ccccc1`, the IC50 is 1.57 µM.
Same read-out and setting: under `O=C(CCCc1ccccc1)NCC(CNC(=O)CCCc1ccccc1)(CNC(=O)CCCc1ccccc1)NC(=O)CCCCCCC[P+](c1ccccc1)(c1ccccc1)c1ccccc1` stands 0.59 µM; under `O=C(O)CCCCC[P+](c1ccccc1)(c1ccccc1)c1ccccc1`, more than 20 µM.
Same read-out and setting: under `COc1cccc([P+](CCCCCCCCCC(=O)NC(CNC(=O)CCCc2ccccc2)(CNC(=O)CCCc2ccccc2)CNC(=O)CCCc2ccccc2)(c2cccc(OC)c2)c2cccc(OC)c2)c1` stands 0.57 µM; under `O=C(CCCCC[P+](c1ccccc1)(c1ccccc1)c1ccccc1)NC(COC(=O)CCCc1ccccc1)(COC(=O)CCCc1ccccc1)COC(=O)CCCc1ccccc1`, 2.68 µM.
Same read-out and setting: the value for `O=C(CCC[P+](c1ccccc1)(c1ccccc1)c1ccccc1)NC(COC(=O)CCCc1ccccc1)(COC(=O)CCCc1ccccc1)COC(=O)CCCc1ccccc1` was 1.28 µM; that for `O=C(O)CCCCCCC[P+](c1ccccc1)(c1ccccc1)c1ccccc1` was more than 20 µM.

A further experiment relates to A-375. Put plainly: Antiproliferative activity against human A-375 cells assessed as inhibition of cell viability incubated for 72 hrs by MTT assay. Type of experiment: functional, cell-based. The note with it: A-375, 72 h.
Consider `O=C(CC[P+](c1ccccc1)(c1ccccc1)c1ccccc1)NC(COC(=O)CCCc1ccccc1)(COC(=O)CCCc1ccccc1)COC(=O)CCCc1ccccc1`, for which the IC50 was 1.75 µM.
With `O=C(CCCC[P+](c1ccccc1)(c1ccccc1)c1ccccc1)NC(COC(=O)CCCc1ccccc1)(COC(=O)CCCc1ccccc1)COC(=O)CCCc1ccccc1`, the half-maximal inhibitory concentration (IC50) came to 2.79 µM.
In the case of `O=C(CCCc1ccccc1)NCC(CNC(=O)CCCc1ccccc1)(CNC(=O)CCCc1ccccc1)NC(=O)CCCCCCC[P+](c1ccccc1)(c1ccccc1)c1ccccc1`, the IC50 was 1.19 µM.
The same measure, in the same setting: under `O=C(O)CCCCC[P+](c1ccccc1)(c1ccccc1)c1ccccc1` stands more than 20 µM; under `COc1cccc([P+](CCCCCCCCCC(=O)NC(CNC(=O)CCCc2ccccc2)(CNC(=O)CCCc2ccccc2)CNC(=O)CCCc2ccccc2)(c2cccc(OC)c2)c2cccc(OC)c2)c1`, 0.66 µM; under `O=C(CCCCC[P+](c1ccccc1)(c1ccccc1)c1ccccc1)NC(COC(=O)CCCc1ccccc1)(COC(=O)CCCc1ccccc1)COC(=O)CCCc1ccccc1`, 4.66 µM.
Consider `O=C(CCC[P+](c1ccccc1)(c1ccccc1)c1ccccc1)NC(COC(=O)CCCc1ccccc1)(COC(=O)CCCc1ccccc1)COC(=O)CCCc1ccccc1`, for which the IC50 was 1.29 µM.
On the same count and under the same terms, the value for `O=C(O)CCCCCCC[P+](c1ccccc1)(c1ccccc1)c1ccccc1` was more than 20 µM.
